{"source": "patent US20170016915A1", "about": "“SCREENING TARGETS AND COMPOSITIONS AND METHODS FOR TREATMENT OF CILIOPATHY DISORDERS” (Duke University, priority 2014, published 2017)", "key": {"[1]": {"tested_on": "GLI2FL, GLI3FL, SUFU and GLI3R in T8-derived Ofd1^KO neurons", "details": "10 μM SFN", "protocol": "(§1) Transfected cells and mouse tissues were lysed in modified RIPA buffer [150 mM sodium chloride, 50 mM Tris-HCl, pH7.4, 1% nonidet P-40, 0.1% sodium deoxycholate, 1 mM EDTA] with 1× proteasome inhibitor (Roche) and centrifuged at 4° C. for 15 minutes. Protein concentration was measured by Lowry assay using the DC Protein Assay Kit (Bio-Rad) on a DU 530 Life Science UV/Vis Spectrophotometer (Beckman Coulter). Total protein in each sample was separated by SDS-PAGE on 4% to 15% Mini-PROTEAN TGX Precast Gel (Bio-Rad) with a Spectra Multicolor Broad Range Protein Ladder (Fermentas) and transferred to an Immun-Blot PVDF Membrane (Bio-Rad). […] Densitometric analysis was performed with Image Lab (Bio-Rad), Quantity One (Bio-Rad), or ImageJ 1.44p (NIH) software.\n(§2) HEK-293 or HEK-293-FT cells and human dermal fibroblasts were grown in DMEM (Invitrogen) containing 10% FBS (Invitrogen) and 2 mM L-glutamine (Invitrogen), hTERT-RPE1 cells in DMEM and Ham's F-12 Nutrient 1:1 mixture (DMEM/F-12; Invitrogen) with 10% FBS and 2 mM L-glutamine."}, "IκBβ": {"tested_on": "IκBβ", "details": "BBS4-, BBS1-, or OFD-suppressant cells", "protocol": "as §1, with “software. […]” for “software.”"}, "β-catenin": {"tested_on": "β-catenin", "details": "cells depleted of BBS4, relative to vehicle-treated cells; 10 μM SFN", "protocol": "as §1, with “software. […]” for “software.”"}, "[2]": {"tested_on": "bbs4, bbs1 and ofd1 morphant zebrafish embryos", "assay": "Convergent extension (CE) and somite defects in morphant zebrafish embryos, coinjection", "assay_type": "in vivo", "details": "for rescue of defective CE phenotypes, somitic defects, and persistent her4 expression: coinjection", "protocol": "Morpholinos against bbs1 ([NT] ID NO: 13), bbs4 ([NT] ID NO: 14), and ofd1 ([NT] ID NO: 15) were purchased from Gene Tools, LLC. Human RPN10, RPN13, and RPT6 mRNA were in vitro transcribed with a mMESSAGE mMACHINE SP6 Kit (Ambion). SFN was dissolved in DMSO (Sigma-Aldrich) at a stock concentration of 1 M and further diluted in water to 10 mM. The morpholino and mRNA or SFN were mixed, and a volume of 0.5 nl was microinjected."}, "[3]": {"tested_on": "her4 expression (Notch target) in bbs4 morphant zebrafish embryos", "assay": "Whole-mount RNA in situ hybridization of her4 in morphant zebrafish", "assay_type": "in vivo", "details": "bbs4 morphants, coinjection, 4.5 dpf", "protocol": "Morpholinos against bbs1 ([NT] ID NO: 13), bbs4 ([NT] ID NO: 14), and ofd1 ([NT] ID NO: 15) were purchased from Gene Tools, LLC. Human RPN10, RPN13, and RPT6 mRNA were in vitro transcribed with a mMESSAGE mMACHINE SP6 Kit (Ambion). SFN was dissolved in DMSO (Sigma-Aldrich) at a stock concentration of 1 M and further diluted in water to 10 mM. The morpholino and mRNA or SFN were mixed, and a volume of 0.5 nl was microinjected. Zebrafish embryos were fixed overnight in 4% PFA at 4° C. Residual pigment was removed by bleaching with 3% H2O2/0.5% KOH."}, "NF-κB signaling": {"tested_on": "NF-κB signaling", "details": "TNF-α stimulated cells with pSuperBBS4, pSuperBBS1 or pSuperOFD1; SFN 6 hours", "protocol": "as §2"}, "PSMB5, PSMB6, and PSMB7": {"tested_on": "PSMB5, PSMB6, and PSMB7", "details": "upon treatment with sulforaphane (ref. 36); cited from earlier work"}}}
{"smiles": "C[S@@+]([O-])CCCCN=C=S", "note": "[SFN, 1-isothiocyanato-4(R)-methylsulfinylbutane]", "values": [{"measurement": "GLI3R protein levels", "setting": "[1]", "result": "reduced"}, {"measurement": "accumulation of GLI3FL, GLI2FL, and SUFU", "setting": "[1]", "result": "ameliorated"}, {"measurement": "accumulation of GFP-tagged IκBβ", "setting": "IκBβ", "result": "ameliorated"}, {"measurement": "β-catenin protein levels", "setting": "β-catenin", "result": "reduction"}, {"measurement": "rescue of defective CE phenotypes, somitic defects, and persistent her4 expression", "setting": "[2]; bbs1 morphants", "result": "robust rescue"}, {"measurement": "bbs4 morphants with CE and somitic defects", "setting": "[2]; coinjection with bbs4 morpholino, blind scoring at 9±1 ss", "result": "significant reduction"}, {"measurement": "rescue of defective CE phenotypes, somitic defects, and persistent her4 expression", "setting": "[2]; ofd1 morphants", "result": "robust rescue"}, {"measurement": "phenotype after injection of the substance alone", "setting": "[2]; zebrafish embryos, no morpholino", "result": "did not give rise to any obvious phenotype"}, {"measurement": "ectopic expression of her4 in neural structures", "setting": "[3]", "result": "ameliorated"}, {"measurement": "NF-κB activity (3X-κB-L luciferase reporter)", "setting": "NF-κB signaling", "result": "restored"}, {"measurement": "expression levels of PSMB5, PSMB6, and PSMB7 and corresponding peptidase activities", "setting": "PSMB5, PSMB6, and PSMB7", "result": "increase"}]}
